Measured values reported in ChEMBL document CHEMBL1201862, “PubChem BioAssay data set” (2004).
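Dose response: 5 concentrations. Exposure: 48 h. Format: 96-well plates. Endpoint: linear interpolation; highest concentration if not reached. GI50 marks 50% less growth.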 Calls of active or inactive are those of the source. Rule as the data show it: active = GI50 up to about 1.1 µM and inactive = higher.

Experiments:
Assay in all cases: growth of human tumour cells (NCI), 48 h
786-0 = test system: 786-0
A549 = test system: A549
COLO 205 = test system: COLO 205
EKVX = test system: EKVX
HT-29 = test system: HT-29
K562 = test system: K562
LOX IMVI = test system: LOX IMVI
MCF7 = test system: MCF7
MDA-N = test system: MDA-N
NCI-H226 = test system: NCI-H226
NCI-H23 = test system: NCI-H23
NCI-H460 = test system: NCI-H460
OVCAR-5 = test system: OVCAR-5
OVCAR-8 = test system: OVCAR-8
SK-MEL-28 = test system: SK-MEL-28
SK-MEL-2 = test system: SK-MEL-2
SK-OV-3 = test system: SK-OV-3
SNB-75 = test system: SNB-75
TK-10 = test system: TK-10
U-251 = test system: U-251

Row | SMILES | GI50 (786-0) | GI50 (A549) | GI50 (COLO 205) | GI50 (EKVX) | GI50 (HT-29) | GI50 (K562) | GI50 (LOX IMVI) | GI50 (MCF7) | GI50 (MDA-N) | GI50 (NCI-H226) | GI50 (NCI-H23) | GI50 (NCI-H460) | GI50 (OVCAR-5) | GI50 (OVCAR-8) | GI50 (SK-MEL-28) | GI50 (SK-MEL-2) | GI50 (SK-OV-3) | GI50 (SNB-75) | GI50 (TK-10) | GI50 (U-251)
1 | O=C(CON1C(=O)c2ccccc2C1=O)c1ccccc1 | 32.4 µM (inactive) | > 100 µM (inactive) | 56.4 µM (inactive) | > 100 µM (inactive) | 48.3 µM (inactive) | 45.9 µM (inactive) | 35.6 µM (inactive) | 40.1 µM (inactive) | > 100 µM (inactive) | > 100 µM (inactive) | > 100 µM (inactive) | > 100 µM (inactive) | > 100 µM (inactive) | > 100 µM (inactive) | > 100 µM (inactive) | > 100 µM (inactive) | > 100 µM (inactive) | 97.5 µM (inactive) | 20.7 µM (inactive) | > 100 µM (inactive)
2 | O=C(O)C1CCN(Cc2oc(CO)cc(=O)c2O)C1 (stereo not given) | > 100 µM (inactive) | > 100 µM (inactive) | > 100 µM (inactive) | > 100 µM (inactive) | > 100 µM (inactive) | > 100 µM (inactive) | > 100 µM (inactive) | > 100 µM (inactive) | > 100 µM (inactive) | > 100 µM (inactive) | > 100 µM (inactive) | > 100 µM (inactive) | > 100 µM (inactive) | > 100 µM (inactive) | > 100 µM (inactive) | > 100 µM (inactive) | > 100 µM (inactive) | > 100 µM (inactive) | > 100 µM (inactive) | > 100 µM (inactive)
3 | COc1ccc2c(c1)-c1[nH]c3ccccc3c1CC2 | 16.4 µM (inactive) | 15.2 µM (inactive) | 16.6 µM (inactive) | 10.1 µM (inactive) | 11 µM (inactive) | 21.6 µM (inactive) | 18.2 µM (inactive) | 14.9 µM (inactive) | 16 µM (inactive) | 13.3 µM (inactive) | 13.6 µM (inactive) | 15.6 µM (inactive) | 15.7 µM (inactive) | 12.6 µM (inactive) | 16.8 µM (inactive) | 15.5 µM (inactive) | 18.1 µM (inactive) | 15.2 µM (inactive) | 16.1 µM (inactive) | 16.6 µM (inactive)
4 | O=C(CN1c2ccccc2Sc2ccccc21)N1CCNCC1 | > 100 µM (inactive) | > 100 µM (inactive) | > 100 µM (inactive) | > 100 µM (inactive) | > 100 µM (inactive) | > 100 µM (inactive) | > 100 µM (inactive) | > 100 µM (inactive) | > 100 µM (inactive) | 78.7 µM (inactive) | > 100 µM (inactive) | > 100 µM (inactive) | > 100 µM (inactive) | > 100 µM (inactive) | > 100 µM (inactive) | > 100 µM (inactive) | > 100 µM (inactive) | 30.9 µM (inactive) | > 100 µM (inactive) | 56.1 µM (inactive)
5 | N=C(N)NCC[C@H](NC(=O)OCCCCCn1ccc(=O)[nH]c1=O)C(=O)O | > 100 µM (inactive) | > 100 µM (inactive) | > 100 µM (inactive) | > 100 µM (inactive) | > 100 µM (inactive) | > 100 µM (inactive) | > 100 µM (inactive) | > 100 µM (inactive) | > 100 µM (inactive) | > 100 µM (inactive) | > 100 µM (inactive) | > 100 µM (inactive) | > 100 µM (inactive) | > 100 µM (inactive) | > 100 µM (inactive) | > 100 µM (inactive) | > 100 µM (inactive) | 41.4 µM (inactive) | > 100 µM (inactive) | > 100 µM (inactive)
6 | Brc1ccc(CCNCCN2CCCCC2)cc1 | 14.1 µM (inactive) | 16.4 µM (inactive) | 12.9 µM (inactive) | 33.1 µM (inactive) | 4 µM (inactive) | 4.1 µM (inactive) | 14.1 µM (inactive) | 15.7 µM (inactive) | 10.7 µM (inactive) | 37.8 µM (inactive) | 16.4 µM (inactive) | 14.7 µM (inactive) | 17 µM (inactive) | 16.5 µM (inactive) | 11.8 µM (inactive) | 19.4 µM (inactive) | 21.2 µM (inactive) | 12.8 µM (inactive) | 15.5 µM (inactive) | 18.4 µM (inactive)
7 | COc1ccc([N+](=O)[O-])c2c(NCCCN(C)C)ccnc12 | 8.36 µM (inactive) | 3.37 µM (inactive) | 2.39 µM (inactive) | 4.92 µM (inactive) | 3.66 µM (inactive) | 1.77 µM (inactive) | 6.71 µM (inactive) | 5.01 µM (inactive) | 12.1 µM (inactive) | 7.31 µM (inactive) | 2.32 µM (inactive) | 2.34 µM (inactive) | 5.9 µM (inactive) | 10.8 µM (inactive) | > 63.4 µM (inactive) | 2.05 µM (inactive) | 11.2 µM (inactive) | 1.28 µM (inactive) | 10.2 µM (inactive) | 4.93 µM (inactive)
8 | COc1ccc(C2C3=C(COC3=O)OC(C)(C)Oc3cc4c(cc32)OCO4)cc1 (stereo not given) | 39.4 µM (inactive) | 35.6 µM (inactive) | 16.1 µM (inactive) | 35.5 µM (inactive) | 24.4 µM (inactive) | 5.13 µM (inactive) | 26.2 µM (inactive) | > 64.4 µM (inactive) | 2.96 µM (inactive) | > 55.3 µM (inactive) | 34.4 µM (inactive) | 26.7 µM (inactive) | 56.8 µM (inactive) | 55.8 µM (inactive) | 43.1 µM (inactive) | 37.8 µM (inactive) | 50.1 µM (inactive) | 9.46 µM (inactive) | 43.5 µM (inactive) | 31.8 µM (inactive)
9 | COc1cccc(N2C(=O)C3c4[nH]c5ccccc5c4C4CCCC4C3C2=O)c1 (stereo not given) | 2.14 µM (inactive) | 4.62 µM (inactive) | > 10 µM (inactive) | > 10 µM (inactive) | 5.69 µM (inactive) | > 10 µM (inactive) | 5.38 µM (inactive) | > 10 µM (inactive) | > 10 µM (inactive) | 2.57 µM (inactive) | > 10 µM (inactive) | 4.26 µM (inactive) | > 10 µM (inactive) | 3.74 µM (inactive) | > 10 µM (inactive) | > 10 µM (inactive) | 6.64 µM (inactive) | 2.24 µM (inactive) | > 10 µM (inactive) | 4.06 µM (inactive)
10 | COc1ccc2oc3c(C)cc4c(OC)nnc(OC)c4c3c2c1 | 7.52 µM (inactive) | 9.57 µM (inactive) | 10.8 µM (inactive) | 17.9 µM (inactive) | 4.57 µM (inactive) | 6.87 µM (inactive) | 5.55 µM (inactive) | 16.3 µM (inactive) | 18 µM (inactive) | 30.8 µM (inactive) | 17.9 µM (inactive) | 3.79 µM (inactive) | > 100 µM (inactive) | 6.65 µM (inactive) | 68.2 µM (inactive) | 82.4 µM (inactive) | > 100 µM (inactive) | 4.88 µM (inactive) | 16.9 µM (inactive) | 1.98 µM (inactive)
11 | COc1ccc2nc3cc([N+](=O)[O-])ccc3c(NNc3ccc(Cl)cc3)c2c1 | 17.9 µM (inactive) | 17.2 µM (inactive) | 12.6 µM (inactive) | 26.2 µM (inactive) | 15.2 µM (inactive) | 14.8 µM (inactive) | 26.9 µM (inactive) | 11.6 µM (inactive) | 31.6 µM (inactive) | 1.1 µM (active) | 45.2 µM (inactive) | 2.88 µM (inactive) | 2.31 µM (inactive) | 21.1 µM (inactive) | 70 µM (inactive) | 18.7 µM (inactive) | 80 µM (inactive) | 40.1 µM (inactive) | 1.9 µM (inactive) | 21.7 µM (inactive)
12 | CC(O)CCNC(=O)Nc1c(C(F)(F)F)cc(-c2ccccc2)[nH]c1=O (stereo not given) | > 100 µM (inactive) | > 100 µM (inactive) | > 100 µM (inactive) | > 100 µM (inactive) | > 100 µM (inactive) | > 100 µM (inactive) | > 100 µM (inactive) | > 100 µM (inactive) | > 100 µM (inactive) | > 100 µM (inactive) | > 100 µM (inactive) | > 100 µM (inactive) | > 100 µM (inactive) | > 100 µM (inactive) | > 100 µM (inactive) | > 100 µM (inactive) | > 100 µM (inactive) | > 100 µM (inactive) | > 100 µM (inactive) | > 100 µM (inactive)
13 | COc1ccc(CCN2COc3ccc4ccc(=O)oc4c3C2)cc1OC | > 100 µM (inactive) | > 100 µM (inactive) | > 100 µM (inactive) | > 100 µM (inactive) | 78.5 µM (inactive) | 50.4 µM (inactive) | 20.9 µM (inactive) | 89.5 µM (inactive) | > 100 µM (inactive) | > 100 µM (inactive) | > 100 µM (inactive) | 66.8 µM (inactive) | > 100 µM (inactive) | > 100 µM (inactive) | > 100 µM (inactive) | > 100 µM (inactive) | > 100 µM (inactive) | > 100 µM (inactive) | > 100 µM (inactive) | 88.9 µM (inactive)
14 | c1cc(-c2ccc(-c3nc4ccc(C5=NCCN5)cc4s3)s2)ccc1C1=NCCN1 | 0.156 µM (active) | 0.166 µM (active) | 1.11 µM (active) | 1.28 µM (inactive) | 0.596 µM (active) | 0.82 µM (active) | 0.262 µM (active) | 0.0372 µM (active) | 0.723 µM (active) | 0.308 µM (active) | 0.813 µM (active) | 0.286 µM (active) | 0.444 µM (active) | 0.296 µM (active) | 1.71 µM (inactive) | 1.27 µM (inactive) | 0.711 µM (active) | 0.222 µM (active) | 0.804 µM (active) | 0.222 µM (active)
